Assay results: patent US20110251240A1, “Dosing Regimen of Flavopiridol for Treating Cancer” (OHIO STATE UNIVERSITY RESEARCH FOUNDATION, priority 2005, published 2011)
“Also recorded” adds a separate entry of the source. Where a name gives a salt, the structure may show the parent alone. Read-outs that look alike come from different tables or passages of the source.

Columns and labels:
[1] = Example 1 plasma pharmacokinetics (LC/MS); details: for half-life: plasma, intravenous
Excerpt: (§1) Subjects: All patients provided written informed consent. Patients had CLL or small lymphocytic lymphoma and required therapy according to the NCI criteria. […] Enrollment requirements included: age older than 17 years, symptomatic by the NCI 96 criteria, platelet count greater than 49×10^9/L, ECOG performance status of 2 or less, no active infection or inflammatory bowel disease, and not pregnant. The serum creatinine and total bilirubin levels were required to be no more than 2.0 times the normal value. Design, Treatment and Dose Modifications: This study utilized a modified phase I design, enrolling three to six patients per level until two of the first six patients experienced dose limiting toxicity. Expansion of the dose level below this occurred to a minimum of six patients to assure safety for phase II investigation. Flavopiridol was administered via a central venous catheter. The schedule of flavopiridol included receiving 50% of the dose as a 30-minute bolus infusion and the remaining 50% dose as a 4-hour infusion every week for four consecutive weeks, followed by two weeks off. The total dose administered in level 1 was 60 mg/m^2 (i.e. 30 mg/m^2 as 30 minute bolus followed by 30 mg/m^2 4-hour continuous infusion). In level 2 the dose was 80 mg/m^2 (i.e. 40 mg/m^2 bolus and 40 mg/m^2 infusion). All patients received allopurinol 300 mg/day beginning one day prior to initiation of treatment and continued during therapy. All patients received prophylactic anti-viral and Pneumocystis carinii pneumonia therapy as described previously during and for six months following completion of therapy. […] Aggressive management of hyperkalemia including kayexalate therapy, insulin and glucose therapy, and calcium therapy was employed according to an established protocol. The ability to perform bedside emergent dialysis was assured. Prophylactic rasburicase was utilized in patients with bulky lymphadenopathy or high lymphocyte counts. Following five treatments with flavopiridol, treatment was transitioned to outpatient status with two hours of hydration before and through therapy with abbreviated laboratory monitoring. Patients could discontinue therapy for stable disease without improvement after two cycles (eight treatments). Otherwise, patients continued therapy in the absence of progression or toxicity that prohibited further treatment for a maximum of six cycles (24 treatments) of flavopiridol. Patients were evaluated for response after two, four, and six cycles of therapy. Dose Limiting Toxicity: Dose limiting toxicity was defined as non-hematologic toxicity of grade 3 or greater severity (excluding transient liver function abnormalities, transient non-life-threatening electrolyte abnormalities, fatigue, or diarrhea that resolve within four days), or in some case grade 2 toxicity (i.e. irreversible renal, chronic pulmonary, neurologic, or cardiac toxicity). Hematologic toxicity was dose limiting only if grade 4 thrombocytopenia or neutropenia persisted for seven days or greater. The NCI Common Toxicity Criteria was used to grade non-hematologic toxicity and the NCI 96 CLL criteria for hematologic toxicity. See, Cheson B. D., et al. “National Cancer Institute-sponsored Working Group guidelines for chronic lymphocytic leukemia: revised guidelines for diagnosis and treatment,” Blood 1996; 87:4990-7. Assessment of Response: Criteria for response and progression utilized the Revised NCI-sponsored Working Group Guidelines as mentioned above. As specified by these guidelines, a response had to be maintained for a period of two months.

RNA polymerase II = assay: Example 1 cellular pharmacodynamics: RNA polymerase II serine-5 phosphorylation in primary CLL cells during treatment; assay type: in vivo, human; details: eight patients examined
Excerpt: (§2) Subjects: All patients provided written informed consent. Patients had CLL or small lymphocytic lymphoma and required therapy according to the NCI criteria. […] Enrollment requirements included: age older than 17 years, symptomatic by the NCI 96 criteria, platelet count greater than 49×10^9/L, ECOG performance status of 2 or less, no active infection or inflammatory bowel disease, and not pregnant. The serum creatinine and total bilirubin levels were required to be no more than 2.0 times the normal value. Design, Treatment and Dose Modifications: This study utilized a modified phase I design, enrolling three to six patients per level until two of the first six patients experienced dose limiting toxicity. Expansion of the dose level below this occurred to a minimum of six patients to assure safety for phase II investigation. Flavopiridol was administered via a central venous catheter. The schedule of flavopiridol included receiving 50% of the dose as a 30-minute bolus infusion and the remaining 50% dose as a 4-hour infusion every week for four consecutive weeks, followed by two weeks off. The total dose administered in level 1 was 60 mg/m^2 (i.e. 30 mg/m^2 as 30 minute bolus followed by 30 mg/m^2 4-hour continuous infusion). In level 2 the dose was 80 mg/m^2 (i.e. 40 mg/m^2 bolus and 40 mg/m^2 infusion). […] Patients were evaluated for response after two, four, and six cycles of therapy. […]

[2] = Example 2 clinical trial: plasma Cmax; assay type: in vivo; details: human, intravenous
Excerpt: (§3) Fifty-six patients were enrolled in this clinical trial with the median prior therapies being 4 and the majority being fludarabine-refractory. […] Cohort 1 was expanded with aggressive TLS prophylaxis. Of the 20 patients in cohort 1, 8 (40%) attained a partial response (PR) with median response duration exceeding 12 months. […] Cohort 3 and 4 did this (Table 4) with acceptable toxicity. Cohort 3 included 19 patients of whom 14 were escalated with the 5th dose. […] Ten (53%) of patients attained a partial response. […] TLS risk factors were examined for the first treatment dose in cohorts 1-3. WBC of ≧200×10^9/L were more frequently associated with TLS (5 of 8 pts) versus those with WBC<200×10^9/L (1 of 34 pts). Cohort 4 excludes pts with WBC≧200×10^9/L and currently includes 14 pts. Safety has been acceptable with only 1 case of TLS. Response assessment for cohort 4 is underway, with anti-tumor activity appearing similar to that observed in cohort 3.

patients with CLL [3] = assay: Example 2 clinical trial: response; assay type: in vivo, human
Excerpt: as §3

[4] = assay type: in vitro ADME; details: bovine
Excerpt: However, despite the promising pre-clinical results with flavopiridol in CLL and virtually all hematologic malignancies, the efficacy of flavopiridol in treating CLL in all of the clinical studies reported thus far are disappointing. […] See for example, Byrd J. C. et al., “Treatment of Relapsed Chronic Lymphocytic Leukemia by 72-hour Continuous Infusion or 1-Hour Bolus Infusion of Flavopiridol: Results from Cancer and Leukemia Group B Study 19805,” Clin. Cancer Res. 2005; 11(11) Jun. 1, 2005, 4176-4181, and references cited therein. The schedules selected in these unsuccessful trials were modeled after in vitro studies performed in fetal bovine serum-based media.
Based upon the poor clinical results in all the trials reported to date with flavopiridol, the present invention contemplated the possibility that differential protein binding could exist between these two culture media. […] Additionally, the 1-hour LC50 concentration for CLL cells in human serum was generally not obtained in the solid tumor phase I trial exploring this schedule. Thus, the prolonged continuous infusion or bolus dosing schedules previously explored in CLL and NHL may not achieve pharmacologically effective drug concentrations of flavopiridol, thereby explaining the absence of activity in the continuous infusion schedules and the marginal activity with the IV bolus schedule. […]

Mcl-1 = assay: Example 1 cellular pharmacodynamics: immunoblot of Mcl-1 in primary CLL cells during treatment; assay type: in vivo, human
Excerpt: as §2

[5] = system: patients with CLL or small lymphocytic lymphoma; assay: Example 1 phase I trial: toxicity; assay type: in vivo
Method: Subjects: All patients provided written informed consent. […] Flavopiridol was administered via a central venous catheter. […] The ability to perform bedside emergent dialysis was assured.
Toxicity Observed with Flavopiridol: Six patients were initially treated in dose level 1 (30 mg/m^2 bolus followed by 30 mg/m^2 4-hour infusion), with one patient having dose limiting toxicity (neutropenic fever). Dose escalation proceeded to dose level 2, with three patients being treated. […] On autopsy, extensive apoptosis/necrosis of diffuse intra-abdominal lymphadenopathy was found. No additional patients were treated at this dose, but patient one of dose level 2, who previously had not experienced TLS at the 80 mg/m^2/dose, developed this toxicity on day 1 of cycle 2 while receiving a 60 mg/m^2 dose. All treatment was put on hold and an aggressive monitoring mechanism was put into place. Fourteen additional patients were treated at the level 1 dose utilizing this protocol. While biochemical evidence of TLS was present in most patients receiving therapy, only one developed significant TLS that required temporary dialysis for medically uncontrollable hyperkalemia on day 1 of therapy. While grade 1 (n=11) or 2 (n=6) diarrhea occurred in the majority of patients treated at the level 1 dose, this was generally short-lived. Similarly, transient grade 1 (n=13) or grade 2 (n=6) fatigue was observed.

relapsed CLL = details: cited from earlier work; for clinical activity / response: CLL, hydrochloride
[6] = system: patients with CLL or small lymphocytic lymphoma; assay: Example 1 phase I trial: response (NCI 96 criteria); assay type: in vivo, human
Excerpt: as §1

patients with CLL [7] = details: human, in vivo
Excerpt: as §3

CLL cells = assay: cells; assay type: cell-based; details: Homo sapiens, CLL cell
Excerpt: Based upon the poor clinical results in all the trials reported to date with flavopiridol, the present invention contemplated the possibility that differential protein binding could exist between these two culture media. […] Additionally, the 1-hour LC50 concentration for CLL cells in human serum was generally not obtained in the solid tumor phase I trial exploring this schedule. Thus, the prolonged continuous infusion or bolus dosing schedules previously explored in CLL and NHL may not achieve pharmacologically effective drug concentrations of flavopiridol, thereby explaining the absence of activity in the continuous infusion schedules and the marginal activity with the IV bolus schedule. Given the novel mechanism of action of flavopiridol, as well as its ability to induce apoptosis independent of p53 dysfunction and modulate critical anti-apoptotic proteins such as Mcl-1 in vitro, and utilizing pharmacokinetic modeling a new dosing regimen in accordance with this invention was developed.

[8] = cohort 1, 30 mg/m^2 + 30 mg/m^2
[9] = cohort 3 at the escalated doses (30 mg/m^2 + 50 mg/m^2)
[10] = Cohort 1, 30 mg/m^2 + 30 mg/m^2, 20 pts
[11] = Cohort 2, 40 mg/m^2 + 40 mg/m^2, 3 pts
[12] = 23 CLL patients, 30-min bolus + 4-h infusion

CN1CCC(c2c(O)cc(O)c3c(=O)cc(-c4ccccc4Cl)oc23)[C@H](O)C1.Cl (stereo partly drawn) [Flavopiridol, (cis-5,7-dihydroxy-2-(2-chlorophenyl)-8-[4-(3-hydroxy-1-methyl)-piperidinyl]-1-benzopyran-4-one) hydrochloride]
CL ([1]; 30 + 30 mg/m^2 (n = 20), Mean ± S.D.): 14.5 ± 6.5 L/hr/m^2
inter-patient variability of Cmax ([1]; human, in vivo): two to three-fold
Cmax ([1]; human, in vivo, 80 mg/m^2): 4400 nM
half-life ([1]; human, t1/2, 30 + 30 mg/m^2 (n = 20), Mean ± S.D.): 14 ± 10.2 h
half-life ([1]; human, terminal half-life, mean±S.D., after the end of the 4-hour CIVI): 14 ± 10.2 h
half-life ([1]; human, terminal half-life, range, after the end of the 4-hour CIVI): 1.1 to 42.5 h
change in serine-5 phosphorylation of RNA polymerase II (RNA polymerase II): no change
Cmax at 0.5 hr [2, 8]: 2080 nM
Cmax at 4.5 hr [2, 8]: 960 nM
Cmax at 0.5 hr [2, 9]: 1950 nM
Cmax at 4.5 hr [2, 9]: 1540 nM
Response Rate (partial response), number of patients (patients with CLL [3]; [10]): 8
Response Rate (partial response), percentage (patients with CLL [3]; [10]): 40%
Response Rate, number of patients (patients with CLL [3]; [11]): 1
Response Rate, percentage (patients with CLL [3]; [11]): 33%
Response Rate (partial response), percentage (patients with CLL [3]; Cohort 3, 30 + 30 mg/m^2 dose 1-4 then 30 + 50 mg/m^2, 19 pts): 53%
median response duration (patients with CLL [3]; cohort 1 responders): exceeding 12 months
tumor cytoreduction with dose escalation (patients with CLL [3]; cohort 3, 14 patients escalated with the 5th dose): Increased tumor cytoreduction was observed in a majority of patients
free drug level [4]: 63-100%
patients with significant modulation of Mcl-1 (Mcl-1; of the five non-responding patients examined): None
patients with decreased expression of Mcl-1 with treatment (Mcl-1; of three responding patients examined): two
toxicity in patient three at dose level 2 ([5]; 40 mg/m^2 bolus + 40 mg/m^2 infusion, day 1): TLS complicated by uncontrollable hyperkalemia and subsequent fatal asystole
Number of patients with AST Elevation Grade 5 [5, 12]: 0
Number of patients with Anemia Grade 5 [5, 12]: 0
Number of patients with Arthralgias Grade 5 [5, 12]: 0
Number of patients with Diarrhea Grade 5 [5, 12]: 0
Number of patients with Dyspnea Grade 5 [5, 12]: 0
Number of patients with Edema Grade 5 [5, 12]: 0
Number of patients with Fatigue Grade 5 [5, 12]: 0
Number of patients with Hypokalemia Grade 5 [5, 12]: 0
Number of patients with Infection Grade 3 [5, 12]: 5
Number of patients with Infection Grade 4 [5, 12]: 0
Number of patients with Infection Grade 5 [5, 12]: 0
Number of patients with Neutropenia Grade 5 [5, 12]: 0
Number of patients with Syncope Grade 5 [5, 12]: 0
Number of patients with Thrombocytopenia Grade 5 [5, 12]: 0
Number of patients with Tumor Lysis Syndrome Grade 5 [5, 12]: 1
Percentage of patients with Infection Grade 3 [5, 12]: (22%)
Percentage of patients with Tumor Lysis Syndrome Grade 5 [5, 12]: 4%
patients with grade 1 diarrhea ([5]; human, in vivo): 11
patients with grade 2 diarrhea ([5]; human, in vivo): 6
patients with transient grade 1 fatigue ([5]; human, in vivo): 13
patients with transient grade 2 fatigue ([5]; human, in vivo): 6
patients developing significant TLS that required temporary dialysis ([5]; in vivo): one
response rate (relapsed CLL; 1-hour bolus, relapsed CLL): 11%
clinical activity / response (relapsed CLL; 24-hour infusion): No activity; also recorded: no patients with CLL responded
clinical activity / response (relapsed CLL; 72-hour continuous infusion): No activity; also recorded: no patients with CLL responded
duration of partial response in patient two at dose level 2 ([6]; 40 mg/m^2 bolus + 40 mg/m^2 infusion): > 13 month
patients attaining a partial response (NCI 96 criteria), number ([6]; among the 23 patients enrolled): ten
patients attaining a partial response (NCI 96 criteria), percentage ([6]; among the 23 patients enrolled): 43%
responding patients relapsed ([6]; of ten responders, at eight and sixteen months): two
responding patients remaining in continuous remission ([6]; of ten responders, at five to 14+ months): Eight
patients experiencing a 50% or greater reduction in lymphadenopathy ([6]; of the nine patients with measurable lymphadenopathy, by day 8 of cycle 1): eight
cases of TLS (patients with CLL [7]): 1

CN1CC[C@H](c2c(O)cc(O)c3c(=O)cc(-c4ccccc4Cl)oc23)[C@H](O)C1 [Flavopiridol, (cis-5,7-dihydroxy-2-(2-chlorophenyl)-8-[4-(3-hydroxy-1-methyl)-piperidinyl]-1-benzopyran-4-one) hydrochloride]
CC50 (CLL cells; 1 h, read-out: 1-hour LC50 required to induce apoptosis in CLL cells, 1-hour exposure, fetal calf serum): 670 nM
CC50 (CLL cells; 1 h, read-out: 1-hour LC50 required to induce apoptosis in CLL cells, 1-hour exposure, human serum): 3510 nM
CC50 (CLL cells; 24 h, read-out: 24-hour LC50 required to induce apoptosis in CLL cells, 24-hour exposure, fetal calf serum): 120 nM
CC50 (CLL cells; 24 h, read-out: 24-hour LC50 required to induce apoptosis in CLL cells, 24-hour exposure, human serum): 470 nM
